Results on five molecules are retold here after US20230075584A1, “INTRANASAL ADMINISTRATION OF GLUTAMATE CARBOXYPEPTIDASE (GCP-II) INHIBITORS” (The Johns Hopkins University, priority 2015, published 2023).

“And” between values parts separate entries of the source, which are not always exact repeats. Identical values can stand only once. “Also recorded” adds a separate entry of the source. Like-named read-outs stand apart in the source and are kept apart here.

A short description of series [1]: Plasma and CSF exposure after i.n. administration in non-human primate. The settings on record: cynomolgus monkey, 30 min post dose.
Procedure: A male cynomolgus monkey (approximately 3.5 kg, non-drug naive) was housed in a stainless steel cage (size 30″ (76.2 cm) wide×31″ (78.74 cm) deep×31.5″ (80.01 cm) high) maintaining temperature of 64-84° F. (17.8° C.-28.9° C.), humidity of 30-70% with alternating 12-hour light/dark cycle as per the USDA Animal Welfare Act (9 CFR, Parts 1, 2, and 3).
The monkey was sedated with 45 mg of ketamine and 0.25 mg of midazolam given as an intramuscular injection prior to test article administration. Sedation was maintained through blood and cerebrospinal fluid (CSF) sample collections with ketamine/midazolam at a starting rate of 20 mg/kg/hr ketamine and 0.4 mg/kg/hr midazolam. […] The device was actuated for a period of 2 min in one nostril (depositing 100 μL). The nose piece was cleaned with a mist of air and then the same procedure was performed in the second nostril (100 μL). Total dose delivered was 100 mg. CSF sample (target of 50 μL) was obtained by an indwelling cannula placed in the intrathecal space at the cisterna magna at 0.5 h post dose. Blood was collected via venipuncture of the femoral vein at 0.5 h post dose and plasma was obtained by low speed centrifugation at 1500×g for 10 minutes. The plasma was flash-frozen on dry ice after separation. Plasma and CSF samples were stored in a freezer set at −70° C., until bioanalysis.
Standard curves were generated in blank artificial CSF. Calibration curves were constructed in the range of 0.113-22.6 μg/mL. Samples were analyzed on Agilent QTOF mass spectrometer by LC/MS. Samples (20 μL) were injected and separated on an Agilent 1290 LC equipped with an Agilent Eclipse Plus C18 column (2.1×100 mm) packed with 1.8 micron stationary phase. The mobile phase consisted of 0.1% formic acid in water and 0.1% formic acid in acetonitrile with an isocratic elution at 2.5% organic. […] Calibration curves were generated with a correlation coefficient >0.99 in a similar manner as described above.
Series [2] is described as follows: Pharmacokinetics of i.p. versus i.n. administered 2-PMPA in rat plasma and brain tissues. It counts as in vivo. How it is done:
For i.p. studies, 2-PMPA was administered as a single i.p. dose. All dosing solutions were prepared on the day of the experiment in 50 mM HEPES buffered saline, and pH adjusted to 7.4 before injection. At various time points following drug administration (0.16 h, 0.5 h, 1 h, 3 h, 5 h) post dose, animals (n=3 per time point, except 3 h n=2 animals) were euthanized with CO2, and blood samples were collected in heparinized microtubes by cardiac puncture and tissues (olfactory bulb, frontal cortex, and cerebellum) were dissected and immediately flash frozen (−80° C.). Plasma was prepared by centrifugation immediately after collection of blood samples. All samples were stored in −80° C. until bioanalysis.
The samples were vortexed and centrifuged.
The maximum plasma concentration (Cmax) and time to Cmax (Tmax) were the observed values. The area under the plasma concentration time curve (AUC) value was calculated to the last quantifiable sample (AUClast) by use of the log linear trapezoidal rule. The brain-to-plasma partition coefficients were calculated as a ratio of their AUCs (AUC0-t, brain/AUC0-t, plasma). The elimination half-life (t1/2) was determined by dividing 0.693 by λz.

Experiment in series [3]: as above
The settings on record: 30 mg/kg i.n.; for Kp: male, Wistar, other: intranasal, 30 mg/kg. It is filed as in vivo.

Series [4] in a line: Brain concentrations 1 h after intranasal administration in rats (single time point). The settings on record: rat, 30 mg/kg i.n., 1 hr post dose; for concentration at 1 h: male, Wistar, in vivo, 30 mg/kg. It is filed as in vivo.
The target of the next series is T1, GCP-II (Rattus norvegicus, UniProt P70627).
T1 construct: from tissue; host or cells: rat brain (olfactory bulb, cortex, cerebellum), sonicated in Tris buffer, supernatant
T1 sequence (P70627 whole entry): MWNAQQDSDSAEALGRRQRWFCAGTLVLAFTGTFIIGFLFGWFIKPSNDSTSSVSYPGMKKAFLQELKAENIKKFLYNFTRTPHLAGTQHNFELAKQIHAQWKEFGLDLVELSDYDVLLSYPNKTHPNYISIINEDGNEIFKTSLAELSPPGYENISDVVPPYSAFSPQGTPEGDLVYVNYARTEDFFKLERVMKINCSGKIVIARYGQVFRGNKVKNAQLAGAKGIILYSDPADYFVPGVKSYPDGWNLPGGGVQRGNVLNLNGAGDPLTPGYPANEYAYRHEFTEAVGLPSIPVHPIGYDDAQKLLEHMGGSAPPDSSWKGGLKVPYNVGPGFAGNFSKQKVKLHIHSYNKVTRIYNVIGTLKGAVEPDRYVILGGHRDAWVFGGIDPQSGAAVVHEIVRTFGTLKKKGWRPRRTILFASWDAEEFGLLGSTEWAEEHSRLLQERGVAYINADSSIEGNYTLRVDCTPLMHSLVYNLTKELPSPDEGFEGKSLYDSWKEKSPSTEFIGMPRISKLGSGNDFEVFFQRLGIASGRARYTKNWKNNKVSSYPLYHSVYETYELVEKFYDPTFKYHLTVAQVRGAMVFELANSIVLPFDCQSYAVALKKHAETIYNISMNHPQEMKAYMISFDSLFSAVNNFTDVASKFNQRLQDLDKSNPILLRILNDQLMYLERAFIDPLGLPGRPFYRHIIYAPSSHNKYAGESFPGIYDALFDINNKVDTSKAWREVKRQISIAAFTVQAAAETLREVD
Kind of series: Ex vivo GCP-II enzymatic (NAAG hydrolyzing) activity in rodent brain tissue after i.n. administration. The method, then:
Rodent ex vivo GCP-II enzymatic activity: One half of the brain tissues collected following i.n. administration (lh post dose) was used to determine GCP-II NAAG hydrolyzing activity. In brief, tissues were weighed and immersed in 0.5 mL of ice-cold 50 mM Tris Buffer (pH 7.7 at RT). Each tissue was sonicated for 30-60 seconds using an ultrasonic cell disrupter. After a 2 minute spin at 13,000 g, supernatants were analyzed for protein content and NAAG-hydrolyzing activity measurements were performed as previously described (Rojas et al., 2012; Robinson et al., 1987).

For series [5] the following is noted: non-human primates; halted development; cited from earlier work.
The conditions of series [6]: purified enantiomers, intranasal. The method, then: Rodent i.n. and i.p. dosing: Studies were conducted in male Wistar rats (6-8 weeks; weighing between 200 gm to 250 gm) obtained from Harlan® Laboratories (Indianapolis, Ind.) that were maintained in a controlled environment and allowed food and water ad libitum. Intranasal administrations were performed according to previously described methods with minor modifications. Briefly, rats were anesthetized with a 1-1.5 mL intraperitoneal (i.p.) dose of 10% chloral hydrate (approved under the protocol RA #13), and kept under anesthesia with additional chloral hydrate as needed throughout the entire experiment. To prevent drainage of nasally dosed solution, the nasal cavity was isolated from the respiratory and gastrointestinal tracts. An incision was made along the neck, and the trachea isolated and transected. The upper part was tied off with a 3-0 silk suture, and the lower part cannulated with PE240 tubing to aid air breathing. Rats were maintained lying on their back, and in this position, given 10 μL (375 mg/mL) of the experimental drug solution per nostril using a micro-syringe connected to 1.5 cm PE-10 tube. The total dose received was 30 mg/kg for each drug solution.
Briefly, prior to extraction, frozen samples were thawed on ice. For plasma samples, 50 μL of the calibration standard or sample were transferred into silanized vials. For brain tissues, the samples were weighed in a 1.7 mL silanized vials to which 4 times the volume of methanol (dilution 1:5) was added. The tissues were stored in −20° C. for 1 h and then homogenized. The calibration curves were developed using plasma and brain from untreated animals as a matrix. For plasma, sample preparation involved a single liquid extraction by addition of 300 μL of methanol as extraction solution with internal standard, followed by vortexing for 30 s and then centrifugation at 12000×g for 10 min. Supernatant was transferred and evaporated to dryness at 40° C. under a gentle stream of nitrogen. For brain tissue, homogenized samples were vortexed and centrifuged as above, and 100 μL supernatant was mixed with 100 μL of internal standard in methanol, and then evaporated to dryness at 40° C. under a gentle stream of nitrogen. […] For derivatization, the residue was reconstituted with 100 μL of n-butanol with 3N HCl and samples were vortexed. The samples were heated at 60° C. in a shaking water bath for 30 min. At the end of 30 min, the derivatized samples were dried under a gentle stream of nitrogen. […] The samples were vortexed and centrifuged. Supernatant (75 μL) was transferred to a 250 μL polypropylene autosampler vial sealed with a Teflon cap and a volume of 10 μL was injected onto the ultral l performance liquid chromatography (UPLC) instrument for quantitative analysis using a temperature-controlled autosampler operating at 10° C.
Chromatographic analysis was performed using an Accela™ ultra high-performance system consisting of an analytical pump, and an autosampler coupled with TSQ Vantage mass spectrometer (Thermo Fisher Scientific Inc., Waltham Mass.). […] The mobile phase was composed of 0.1% formic acid in acetonitrile and 0.1% formic acid in H2O with gradient elution. The total run time for each analyte was 5.0 min.

Series [7] addresses glutamate carboxypeptidase II (GCP-II) (Homo sapiens, UniProt Q04609). Particulars: GCP-II inhibition, Table 1; read-out: Potency (IC50); cited from earlier work.
The mark [8] stands for this setting: ex vivo, 1 h after 30 mg/kg i.n., relative to untreated control rats.

Sequence of glutamate carboxypeptidase II (GCP-II) (Q04609 whole entry, species assumed): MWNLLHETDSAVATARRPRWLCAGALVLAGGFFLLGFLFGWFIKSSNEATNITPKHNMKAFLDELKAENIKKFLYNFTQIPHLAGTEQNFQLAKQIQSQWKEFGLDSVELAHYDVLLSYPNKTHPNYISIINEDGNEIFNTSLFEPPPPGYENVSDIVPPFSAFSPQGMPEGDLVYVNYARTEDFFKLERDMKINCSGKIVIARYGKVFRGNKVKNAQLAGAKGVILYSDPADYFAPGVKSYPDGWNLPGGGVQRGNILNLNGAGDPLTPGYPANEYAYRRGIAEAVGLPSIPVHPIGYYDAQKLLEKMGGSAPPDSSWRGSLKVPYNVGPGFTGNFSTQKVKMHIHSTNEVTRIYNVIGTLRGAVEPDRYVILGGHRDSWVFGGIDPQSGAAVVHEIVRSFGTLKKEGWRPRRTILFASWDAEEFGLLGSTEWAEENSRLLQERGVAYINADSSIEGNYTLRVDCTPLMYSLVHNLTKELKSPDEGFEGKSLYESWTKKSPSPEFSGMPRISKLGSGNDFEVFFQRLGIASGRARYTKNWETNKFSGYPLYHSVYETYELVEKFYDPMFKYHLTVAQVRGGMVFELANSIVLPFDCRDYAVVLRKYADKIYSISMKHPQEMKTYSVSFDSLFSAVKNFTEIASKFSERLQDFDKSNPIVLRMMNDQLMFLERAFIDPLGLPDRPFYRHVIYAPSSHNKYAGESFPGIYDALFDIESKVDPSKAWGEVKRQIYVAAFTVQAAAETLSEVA

Turning to `O=C(O)CCC(CP(=O)(O)O)C(=O)O` (racemic) [2-PMPA, 2-(phosphonomethyl)-pentanedioic acid], the “CSF concentration versus the IC50” value in series [1] (i.n.) is listed as greater than 100 fold. In addition, the concentration at 0.5 h in series [1] (male, CSF, other: intranasal, 100 mg, CSF concentration, 100 mg total i.n.) is 320 ng/mL and ~1.5 µM. In series [2] (i.n. route, pooled plasma and brain data from i.p. and i.n.), the “share of 2-PMPA reaching the brain accounted from the plasma 2-PMPA” value amounted to 2%. In series [2] (male, Wistar, rat, brain, intraperitoneal, 30 mg/kg, following systemic administration, read-out: brain-to-plasma ratio), the Kp was no more than 0.02. Also, the fold improvement in brain-to-plasma ratio, intranasal versus intraperitoneal in series [2] (male, Wistar, rat, brain, other: intranasal, 30 mg/kg, intranasal versus other route, read-out: improvement in the brain-to-plasma ratio when administered through an intranasal route) stood at 100. Besides, the Kp in series [2] (male, Wistar, rat, olfactory bulb, cortex and cerebellum, ip, 30 mg/kg, rat, 30 mg/kg i.p., olfactory bulb, cortex and cerebellum, read-out: brain tissue to plasma ratio based on AUCs (AUC0-t, brain/AUC0-t, plasma)) is less than 0.02. Further, in series [2] (rat, 30 mg/kg i.n.), the AUC0-t cerebellum was 5.27 µg·h/g, the AUC0-t cortex amounted to 37.7 µg·h/g, the AUC0-t olfactory bulb came out at 78.1 µg·h/g and the “plasma Cmax” value amounted to 24700 ng/mL. In series [2] (rat, 30 mg/kg i.p.), this molecule returned an AUC0-t cerebellum of 0.80 µg·h/g, an AUC0-t cortex of 0.84 µg·h/g, an AUC0-t olfactory bulb of 1.15 µg·h/g and an AUC0-t plasma of 50300 ng·h/mL. Further, in series [2] (rat, 30 mg/kg i.p.), the apparent clearance is reported as 9.71 mL/min/kg, the “apparent volume of distribution” value is on record as 0.82 L/kg and the “peak plasma concentration (Cmax)” value is 49500 ng/mL. In addition, the “elimination t1/2” value in series [2] (rat, 30 mg/kg i.p., plasma) came out at 59.4 min. Besides, the “plasma AUC0-t” value in series [3] was determined as 52300 ng·h/mL. For the same molecule, in series [3] (cerebellum, read-out: brain tissue to plasma ratio based on AUCs, cerebellum), the Kp amounted to 0.1. Further, the Kp in series [3] (cortex, read-out: brain tissue to plasma ratio based on AUCs, cortex) came to 0.71. For the same molecule, the Kp in series [3] (olfactory bulb, read-out: brain tissue to plasma ratio based on AUCs, olfactory bulb) is 1.49. In addition, the concentration at 1 h in series [4] (read-out: concentration in cerebellum) stood at 2130 ng/g. Besides, the concentration at 1 h in series [4] (read-out: concentration in cortex) was found to be 10300 ng/g. The concentration at 1 h in series [4] (read-out: concentration in olfactory bulb) is 31200 ng/g. At GCP-II (setting [8]), the “inhibition of GCP-II activity in cerebellum” value is 70%±5%, the “inhibition of GCP-II activity in cortex” value is on record as 100% and the “inhibition of GCP-II activity in olfactory bulb” value is 100%. In addition, the “inhibition of brain GCP-II enzymatic activity ex-vivo” value against GCP-II (i.n. administration, summary statement) is recorded as “complete inhibition”.
On to `O=C(O)CCC(CCCS)C(=O)O` (stereo not shown) [2-MPPA, 2-(3-mercaptopropyl)pentane-dioic acid], for which, in series [5], the “toxicity observed in primate studies” value is reported as “membranoproliferative glomerular nephritis; also recorded: immunological toxicities”.
Consider `O=C(O)CC[C@@H](CP(=O)(O)O)C(=O)O` [R-2-PMPA], for which, in series [6], the concentration in cerebellum came to 1.78 µg/g, the concentration in cortex was determined as 10.1 µg/g and the “concentration in olfactory bulb” value was 19.3 µg/g.
In the same order, the values of `O=C(O)CC[C@H](CP(=O)(O)O)C(=O)O` [S-2-PMPA] are 2.51 µg/g, 10.4 µg/g and 28.5 µg/g.
Take “N-[N-[(S)-1,3-dicarboxypropyl]carbamoyl]-L-cysteine [DCMC]”: the half-maximal inhibitory concentration (IC50) (in general, the concentration that inhibits the measured activity by half) in series [7] is 3.1 nM. Moreover, in series [4], the concentration in cerebellum stood at 0.20 µg/g, the concentration in cortex is 2.03 µg/g and the “concentration in olfactory bulb” value worked out at 2.12 µg/g.
